Data from patent US6984404B1, “Methods for preparing coated drug particles and pharmaceutical formulations thereof” (University of Florida Research Foundation, Inc., priority 1998, dated 2006).
Several values for one entry are separate records, joined by “and”; a condition that tells them apart may be missing. Identical values can stand only once. Like-named read-outs stand apart in the source and are kept apart here.

Columns and labels:
[1] = Plasma concentration after intratracheal administration in rats; type: in vivo
Method: Characterization of films deposited on silicon wafers or glass slides was performed using SEM. FTIR, and NMR to characterize polymer structure and morphology. The BUD10 and BUD25 coated powders were tested in vitro to assess differences in the dissolution rates. […] Comparison of the plasma concentrations after IT administration of the coated powders with uncoated BUD powders and IV administration of BUD solution, as well as with FP after IT administration, were performed to compare absorption rates. Finally, the pulmonary targeting of coating BUD25 powders after IT administration was compared with the pulmonary targeting of uncoated BUD and FP powders after IT administration and BUD solution after IV administration. Verification of deposited polymer on silicon wafers using NMR and FTIR was used to characterize molecular structure.

plasma protein = conditions: cited from earlier work
[2] = cited from earlier work; for half-life after intravenous administration: intravenous (FP: terminal half-life)
[3] = biological target: T1, glucocorticoid receptor (GR) (Homo sapiens, UniProt P04150); conditions: cited from earlier work
T1 sequence (P04150 1-777): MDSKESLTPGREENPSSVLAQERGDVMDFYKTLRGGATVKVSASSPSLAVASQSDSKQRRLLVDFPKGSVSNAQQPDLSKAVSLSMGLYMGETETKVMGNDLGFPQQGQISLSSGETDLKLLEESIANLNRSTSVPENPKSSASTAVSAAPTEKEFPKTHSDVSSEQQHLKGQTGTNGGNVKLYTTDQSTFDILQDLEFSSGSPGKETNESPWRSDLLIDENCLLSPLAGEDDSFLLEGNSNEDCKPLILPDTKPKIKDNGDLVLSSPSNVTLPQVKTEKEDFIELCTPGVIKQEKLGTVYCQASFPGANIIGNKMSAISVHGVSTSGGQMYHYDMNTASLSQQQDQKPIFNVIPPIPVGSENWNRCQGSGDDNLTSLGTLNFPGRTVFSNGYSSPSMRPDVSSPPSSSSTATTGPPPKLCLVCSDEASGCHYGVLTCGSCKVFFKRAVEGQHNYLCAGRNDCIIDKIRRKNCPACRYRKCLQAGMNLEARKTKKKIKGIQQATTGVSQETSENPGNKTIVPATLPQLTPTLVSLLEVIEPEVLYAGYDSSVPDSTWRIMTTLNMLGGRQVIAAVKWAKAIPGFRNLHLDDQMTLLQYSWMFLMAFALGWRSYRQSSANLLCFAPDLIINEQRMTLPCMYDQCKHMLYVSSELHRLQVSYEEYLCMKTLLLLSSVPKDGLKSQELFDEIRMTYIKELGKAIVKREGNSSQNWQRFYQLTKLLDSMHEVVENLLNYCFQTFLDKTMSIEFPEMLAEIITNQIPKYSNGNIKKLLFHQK

[4] = cited from earlier work; for pulmonary deposition ratio, MDI: metered dose inhaler (TA: Azmacort MDI with spacer)
[5] = rats; cited from earlier work

For `CCCC1O[C@@H]2C[C@H]3[C@@H]4CCC5=CC(=O)C=C[C@]5(C)[C@H]4[C@@H](O)C[C@]3(C)[C@]2(C(=O)CO)O1` (stereo partly shown) [Budesonide, budesonide], the “time of peak plasma concentration” value [1] is given as 0.5 h, the MAT ([1]; calculated) is given as 0.3 h and the plasma protein binding (plasma protein) is given as 88%. For the same compound, the Cmax ([2]; after inhalation via Turbohaler) was 3.5 nM, the plasma half-life ([2]; approximately the same after intravenous and inhalation administration) was 2.8 h and the oral bioavailability ([2]; in vivo) was 11%. The “volume of distribution at steady state” value ([2]; in vivo) was 183 L and the “first-pass metabolism of an oral dose” value ([2]; oral) was “About 89%”.
In the case of `CCC(=O)O[C@]1(C(=O)SCF)[C@H](C)C[C@H]2[C@@H]3C[C@H](F)C4=CC(=O)C=C[C@]4(C)[C@@]3(F)[C@@H](O)C[C@@]21C` [FP, fluticasone propionate], the “receptor binding affinity (RBA)” value [3] is listed as 1800, the plasma protein binding (plasma protein) is listed as 90% and the “pulmonary deposition ratio, DPI” value ([4]; dry powder inhaler) is listed as 15%. The “pulmonary deposition ratio, MDI” value [4] was 26%, the “t1/2 (dose-dependent)” value ([2]; Möllmann et al., 1998) was 5.2 to 7.4 h and 6.0 ± 0.7 h and the “terminal half-life after inhalation” value ([2]; Thorsson et al. 1997) was 10 h. The “mean absorption time (MAT)” value ([2]; after inhalation) was 4.9 h, the oral bioavailability ([2]; in vivo) was “less than 1%” and the clearance ([2]; in vivo) was 66 L/h. The “drug excreted in the feces” value ([2]; in vivo) was 87–100%, the “excreted as the inactive 17-carboxylic acid” value ([2]; in vivo) was 340% and the “volume of distribution at steady state” value ([2]; in vivo) was 318 L. For the same compound, the “overall bioavailability after inhalation” value ([2]; inhalation) was 10–15%, the “mean residence time after inhaled administration (AUMC/AUC)” value ([2]; inhaled) was 9.1 ± 1.1 h and 7.8 to 11 h and the “half-life after intravenous administration” value [2] was 7.7 to 8.3 h.
In the case of `CC1(C)O[C@@H]2C[C@H]3[C@@H]4CCC5=CC(=O)C=C[C@]5(C)[C@@]4(F)[C@@H](O)C[C@]3(C)[C@]2(C(=O)CO)O1` [TA, triamcinolone acetonide], the plasma protein binding (plasma protein) is given as 71%, the “pulmonary deposition ratio, MDI” value [4] is given as “approximately 22%” and the mean residence time ([2]; after intravenous administration) is given as 2.7 h. The “absorption of suspension in the lungs” value ([2]; by the difference in half-lives of intravenous versus inhaled doses) was ~2 h, the oral bioavailability ([2]; in vivo) was 20–25% and the clearance ([2]; in vivo) was 37.3 L/h. The volume of distribution ([2]; in vivo) was 100 to 150 L, the “half-life after inhaled dose” value ([2]; inhaled) was 3.6 h and the “half-life after intravenous administration” value [2] was 1.4 to 2.0 h.
In the case of `CC(C)NCC(O)c1ccc(O)c(O)c1` (stereo not shown) [free isopreternol, isoproterenol], the “duration of amelioration of bronchoconstriction” value [5] is listed as 30 min.
For Triamcinolone acetonide phosphate [TAP], the plasma half-life ([2]; IV administration in humans) is listed as 0.05 to 0.067 h.
